Reference: the kinase profiling compilation of Christmann-Franck et al. (2016)

How the values were obtained:
Assay in all cases: KINOMEscan competition binding
Settings in all cases: compound 10.0 µM
ACVR2A (human) = ACVR2A (human) (UniProt P27037)
ADCK3 (human) = ADCK3 (human) (UniProt Q8NI60)
BMPR1A (human) = BMPR1A (human) (UniProt P36894)
CAMK2B (human) = CAMK2B (human) (UniProt Q13554)
CDC42BPA (human) = CDC42BPA (human) (UniProt Q5VT25)
CDK5 (human) = CDK5 (human) (UniProt Q00535)
CHEK2 (human) = CHEK2 (human) (UniProt O96017)
CHUK (human) = CHUK (human) (UniProt O15111)
CLK4 (human) = CLK4 (human) (UniProt Q9HAZ1)
CSNK1E (human) = CSNK1E (human) (UniProt P49674)
CaMK1 (human) = CaMK1 (human) (UniProt Q14012)
DMPK (human) = DMPK (human) (UniProt Q09013)
EPHB2 (human) = EPHB2 (human) (UniProt P29323)
ERBB2 (human) = ERBB2 (human) (UniProt P04626)
FYN (human) = FYN (human) (UniProt P06241)
IKBKE (human) = IKBKE (human) (UniProt Q14164)
[1] = molecular target: JAK2 JH1 catalytic (human) (UniProt O60674)
[2] = test system: KIT (human), P10721 [V559D]
MAP2K1 (human) = MAP2K1 (human) (UniProt Q02750)
MAP2K4 (human) = MAP2K4 (human) (UniProt P45985)
MAP4K3 (human) = MAP4K3 (human) (UniProt Q8IVH8)
MARK1 (human) = MARK1 (human) (UniProt Q9P0L2)
MST4 (human) = MST4 (human) (UniProt Q9P289)
PAK7 (human) = PAK7 (human) (UniProt Q9P286)
PDGFRB (human) = PDGFRB (human) (UniProt P09619)
PIM3 (human) = PIM3 (human) (UniProt Q86V86)
PLK1 (human) = PLK1 (human) (UniProt P53350)
PLK3 (human) = PLK3 (human) (UniProt Q9H4B4)
PRKCH (human) = PRKCH (human) (UniProt P24723)
PRKD3 (human) = PRKD3 (human) (UniProt O94806)
PTK2 (human) = PTK2 (human) (UniProt Q05397)
RIOK3 (human) = RIOK3 (human) (UniProt O14730)
RPS6KA5 KD2 (human) = RPS6KA5 KD2 (human) (UniProt O75582)
RPS6KA6 KD2 (human) = RPS6KA6 KD2 (human) (UniProt Q9UK32)
SGK110 (human) = SGK110 (human) (UniProt P0C264)
SRPK1 (human) = SRPK1 (human) (UniProt Q96SB4)
STK36 (human) = STK36 (human) (UniProt Q9NRP7)
TEK (human) = TEK (human) (UniProt Q02763)
TESK1 (human) = TESK1 (human) (UniProt Q15569)
TLK1 (human) = TLK1 (human) (UniProt Q9UKI8)
Chain of TLK1 (human) (Q9UKI8 whole entry, looked up): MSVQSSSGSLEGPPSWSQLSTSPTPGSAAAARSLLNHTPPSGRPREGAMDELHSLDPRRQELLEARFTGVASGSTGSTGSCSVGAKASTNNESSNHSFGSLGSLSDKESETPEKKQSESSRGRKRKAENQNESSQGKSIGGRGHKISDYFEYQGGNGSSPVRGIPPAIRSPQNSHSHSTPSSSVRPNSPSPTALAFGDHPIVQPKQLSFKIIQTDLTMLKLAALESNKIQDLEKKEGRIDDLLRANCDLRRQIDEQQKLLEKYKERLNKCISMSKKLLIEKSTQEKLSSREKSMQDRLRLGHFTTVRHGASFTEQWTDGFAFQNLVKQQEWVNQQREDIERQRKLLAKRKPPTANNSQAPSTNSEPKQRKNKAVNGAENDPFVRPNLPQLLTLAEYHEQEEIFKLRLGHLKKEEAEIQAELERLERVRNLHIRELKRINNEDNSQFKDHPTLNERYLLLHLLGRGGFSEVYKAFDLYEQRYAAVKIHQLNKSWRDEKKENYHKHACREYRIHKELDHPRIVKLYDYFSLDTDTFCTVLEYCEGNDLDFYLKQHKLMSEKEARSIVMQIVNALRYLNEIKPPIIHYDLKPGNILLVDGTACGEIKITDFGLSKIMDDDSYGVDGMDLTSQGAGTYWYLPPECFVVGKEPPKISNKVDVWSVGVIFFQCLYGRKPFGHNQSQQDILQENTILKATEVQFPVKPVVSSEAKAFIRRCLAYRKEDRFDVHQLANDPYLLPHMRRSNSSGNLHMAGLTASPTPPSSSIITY

Chain of FYN (human) (P06241 whole entry, looked up): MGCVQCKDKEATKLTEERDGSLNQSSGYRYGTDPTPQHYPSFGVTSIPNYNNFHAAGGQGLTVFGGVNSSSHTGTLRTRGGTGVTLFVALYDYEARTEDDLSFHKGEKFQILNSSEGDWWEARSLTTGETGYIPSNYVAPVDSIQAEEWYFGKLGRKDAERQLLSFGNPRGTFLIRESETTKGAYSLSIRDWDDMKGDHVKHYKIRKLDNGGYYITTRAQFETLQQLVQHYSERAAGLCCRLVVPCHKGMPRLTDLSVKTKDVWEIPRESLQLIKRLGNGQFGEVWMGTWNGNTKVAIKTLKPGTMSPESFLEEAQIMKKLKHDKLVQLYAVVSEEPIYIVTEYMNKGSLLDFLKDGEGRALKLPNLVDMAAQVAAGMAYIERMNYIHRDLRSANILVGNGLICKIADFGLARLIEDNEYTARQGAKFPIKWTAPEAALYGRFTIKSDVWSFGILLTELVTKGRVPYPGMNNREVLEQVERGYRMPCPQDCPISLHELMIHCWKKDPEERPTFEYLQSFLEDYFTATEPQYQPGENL
Chain of IKBKE (human) (Q14164 whole entry, looked up): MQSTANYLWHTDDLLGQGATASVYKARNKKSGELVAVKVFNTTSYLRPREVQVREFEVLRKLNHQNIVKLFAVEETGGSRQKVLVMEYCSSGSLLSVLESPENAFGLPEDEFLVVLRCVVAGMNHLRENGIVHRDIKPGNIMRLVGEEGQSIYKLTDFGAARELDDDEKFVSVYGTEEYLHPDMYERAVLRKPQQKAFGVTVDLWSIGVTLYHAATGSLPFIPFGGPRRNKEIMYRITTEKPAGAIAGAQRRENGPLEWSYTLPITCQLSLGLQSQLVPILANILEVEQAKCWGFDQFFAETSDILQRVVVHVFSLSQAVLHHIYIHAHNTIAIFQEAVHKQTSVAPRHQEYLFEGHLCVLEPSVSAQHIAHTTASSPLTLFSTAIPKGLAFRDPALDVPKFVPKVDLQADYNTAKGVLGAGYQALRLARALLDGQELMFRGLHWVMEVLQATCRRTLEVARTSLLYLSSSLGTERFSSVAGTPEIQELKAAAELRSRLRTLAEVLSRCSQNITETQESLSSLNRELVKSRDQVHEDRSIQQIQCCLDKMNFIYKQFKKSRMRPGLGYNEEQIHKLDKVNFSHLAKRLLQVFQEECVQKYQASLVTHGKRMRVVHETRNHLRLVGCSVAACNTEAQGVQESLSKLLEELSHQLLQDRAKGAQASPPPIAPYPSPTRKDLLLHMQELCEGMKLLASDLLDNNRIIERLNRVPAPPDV
Chain of MST4 (human) (Q9P289 whole entry, looked up): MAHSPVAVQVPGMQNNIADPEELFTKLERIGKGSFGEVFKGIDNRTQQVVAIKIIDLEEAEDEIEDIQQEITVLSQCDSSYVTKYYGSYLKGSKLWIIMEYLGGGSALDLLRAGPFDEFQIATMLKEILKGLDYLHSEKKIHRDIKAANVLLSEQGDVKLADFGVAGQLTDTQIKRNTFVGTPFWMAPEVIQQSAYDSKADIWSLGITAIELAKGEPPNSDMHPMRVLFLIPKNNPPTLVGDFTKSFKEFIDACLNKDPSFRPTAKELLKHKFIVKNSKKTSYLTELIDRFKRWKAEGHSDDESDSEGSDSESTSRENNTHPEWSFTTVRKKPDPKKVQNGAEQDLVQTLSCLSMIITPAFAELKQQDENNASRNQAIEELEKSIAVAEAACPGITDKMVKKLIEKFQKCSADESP
Chain of EPHB2 (human) (P29323 whole entry, looked up): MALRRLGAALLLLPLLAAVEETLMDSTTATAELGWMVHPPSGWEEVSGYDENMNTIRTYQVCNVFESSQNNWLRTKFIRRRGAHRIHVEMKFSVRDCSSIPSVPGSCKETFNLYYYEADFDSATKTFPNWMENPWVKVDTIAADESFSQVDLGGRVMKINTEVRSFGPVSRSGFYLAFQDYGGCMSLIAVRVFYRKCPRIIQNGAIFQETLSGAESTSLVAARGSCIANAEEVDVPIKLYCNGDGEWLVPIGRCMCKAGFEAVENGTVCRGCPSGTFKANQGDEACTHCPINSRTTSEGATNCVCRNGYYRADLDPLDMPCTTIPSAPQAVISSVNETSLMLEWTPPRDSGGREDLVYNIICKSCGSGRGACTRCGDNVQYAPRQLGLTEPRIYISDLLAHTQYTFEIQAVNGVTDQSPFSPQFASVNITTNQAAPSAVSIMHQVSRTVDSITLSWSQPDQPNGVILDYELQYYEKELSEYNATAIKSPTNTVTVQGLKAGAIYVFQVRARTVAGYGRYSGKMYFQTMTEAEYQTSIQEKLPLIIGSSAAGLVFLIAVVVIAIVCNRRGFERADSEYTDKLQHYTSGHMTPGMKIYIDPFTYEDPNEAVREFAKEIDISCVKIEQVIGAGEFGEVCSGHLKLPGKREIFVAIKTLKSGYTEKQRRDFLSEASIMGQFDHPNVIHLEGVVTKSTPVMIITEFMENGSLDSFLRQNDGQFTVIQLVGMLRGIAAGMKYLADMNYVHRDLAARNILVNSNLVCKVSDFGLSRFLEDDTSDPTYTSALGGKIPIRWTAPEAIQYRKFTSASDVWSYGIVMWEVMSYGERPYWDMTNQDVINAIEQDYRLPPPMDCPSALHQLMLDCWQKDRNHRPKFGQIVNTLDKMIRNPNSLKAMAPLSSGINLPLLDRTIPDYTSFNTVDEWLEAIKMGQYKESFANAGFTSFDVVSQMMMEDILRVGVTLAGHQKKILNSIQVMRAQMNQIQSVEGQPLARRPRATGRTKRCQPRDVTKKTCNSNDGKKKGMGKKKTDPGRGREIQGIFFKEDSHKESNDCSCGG
Chain of RIOK3 (human) (O14730 whole entry, looked up): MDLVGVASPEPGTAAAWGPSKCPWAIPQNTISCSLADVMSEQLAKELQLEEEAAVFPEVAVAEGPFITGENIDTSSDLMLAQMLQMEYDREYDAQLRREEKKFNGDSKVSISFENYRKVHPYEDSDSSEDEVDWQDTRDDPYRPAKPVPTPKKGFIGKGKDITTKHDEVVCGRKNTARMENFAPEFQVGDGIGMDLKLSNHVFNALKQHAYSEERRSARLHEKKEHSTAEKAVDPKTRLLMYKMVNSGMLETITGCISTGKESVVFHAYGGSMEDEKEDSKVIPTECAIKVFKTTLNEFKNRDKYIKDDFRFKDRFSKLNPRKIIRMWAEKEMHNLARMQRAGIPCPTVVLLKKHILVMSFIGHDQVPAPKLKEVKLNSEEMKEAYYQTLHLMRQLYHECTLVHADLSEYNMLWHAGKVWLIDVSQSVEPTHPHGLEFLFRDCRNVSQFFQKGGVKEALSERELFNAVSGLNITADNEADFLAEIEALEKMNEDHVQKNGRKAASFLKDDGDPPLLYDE
Chain of CAMK2B (human) (Q13554 whole entry, looked up): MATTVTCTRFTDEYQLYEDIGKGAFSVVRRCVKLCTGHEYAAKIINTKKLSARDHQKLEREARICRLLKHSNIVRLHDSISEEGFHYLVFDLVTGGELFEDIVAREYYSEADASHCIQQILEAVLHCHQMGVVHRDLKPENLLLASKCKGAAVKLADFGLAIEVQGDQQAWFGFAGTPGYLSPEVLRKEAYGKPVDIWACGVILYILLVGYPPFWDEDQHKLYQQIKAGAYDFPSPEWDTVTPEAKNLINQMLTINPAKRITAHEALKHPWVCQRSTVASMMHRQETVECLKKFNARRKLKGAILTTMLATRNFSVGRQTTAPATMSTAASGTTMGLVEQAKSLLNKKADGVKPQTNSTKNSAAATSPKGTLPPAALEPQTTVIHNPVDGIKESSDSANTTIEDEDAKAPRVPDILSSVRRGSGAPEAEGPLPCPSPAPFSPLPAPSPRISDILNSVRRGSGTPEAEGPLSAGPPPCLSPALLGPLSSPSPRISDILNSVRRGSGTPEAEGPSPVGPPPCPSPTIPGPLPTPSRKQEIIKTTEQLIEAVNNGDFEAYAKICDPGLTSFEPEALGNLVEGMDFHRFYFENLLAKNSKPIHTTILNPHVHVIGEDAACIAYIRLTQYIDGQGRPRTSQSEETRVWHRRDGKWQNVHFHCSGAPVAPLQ
Chain of CDK5 (human) (Q00535 whole entry, looked up): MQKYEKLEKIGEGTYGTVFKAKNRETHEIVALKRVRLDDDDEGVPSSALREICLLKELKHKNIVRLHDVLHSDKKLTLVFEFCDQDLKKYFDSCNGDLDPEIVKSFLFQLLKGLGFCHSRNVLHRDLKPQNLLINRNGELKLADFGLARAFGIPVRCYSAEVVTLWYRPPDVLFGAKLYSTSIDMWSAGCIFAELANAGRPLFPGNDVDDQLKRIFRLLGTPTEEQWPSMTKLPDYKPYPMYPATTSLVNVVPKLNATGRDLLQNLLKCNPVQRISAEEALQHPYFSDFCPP

## C=CC(=O)Nc1cccc(Nc2nc(N[C@H]3CC[C@H](N(C)C)CC3)nc3c2ncn3C(C)C)c1
ACVR2A (human)
  kinase still bound, per cent of control: 97%
ADCK3 (human)
  kinase still bound, per cent of control: 87%
BMPR1A (human)
  kinase still bound, per cent of control: 100%
CAMK2B (human)
  kinase still bound, per cent of control: 80%
CDC42BPA (human)
  kinase still bound, per cent of control: 82%
CDK5 (human)
  kinase still bound, per cent of control: 80%
CHEK2 (human)
  kinase still bound, per cent of control: 60%
CHUK (human)
  kinase still bound, per cent of control: 82%
CLK4 (human)
  kinase still bound, per cent of control: 5.1%
CSNK1E (human)
  kinase still bound, per cent of control: 0.1%
CaMK1 (human)
  kinase still bound, per cent of control: 93%
DMPK (human)
  kinase still bound, per cent of control: 8.8%
EPHB2 (human)
  kinase still bound, per cent of control: 87%
ERBB2 (human)
  kinase still bound, per cent of control: 100%
FYN (human)
  kinase still bound, per cent of control: 23%
IKBKE (human)
  kinase still bound, per cent of control: 95%
[1]
  kinase still bound, per cent of control: 9.1%
[2]
  kinase still bound, per cent of control: 42%
MAP2K1 (human)
  kinase still bound, per cent of control: 83%
MAP2K4 (human)
  kinase still bound, per cent of control: 76%
MAP4K3 (human)
  kinase still bound, per cent of control: 25%
MARK1 (human)
  kinase still bound, per cent of control: 94%
MST4 (human)
  kinase still bound, per cent of control: 16%
PAK7 (human)
  kinase still bound, per cent of control: 17%
PDGFRB (human)
  kinase still bound, per cent of control: 8.4%
PIM3 (human)
  kinase still bound, per cent of control: 75%
PLK1 (human)
  kinase still bound, per cent of control: 21%
PLK3 (human)
  kinase still bound, per cent of control: 100%
PRKCH (human)
  kinase still bound, per cent of control: 91%
PRKD3 (human)
  kinase still bound, per cent of control: 80%
PTK2 (human)
  kinase still bound, per cent of control: 26%
RIOK3 (human)
  kinase still bound, per cent of control: 34%
RPS6KA5 KD2 (human)
  kinase still bound, per cent of control: 95%
RPS6KA6 KD2 (human)
  kinase still bound, per cent of control: 100%
SGK110 (human)
  kinase still bound, per cent of control: 88%
SRPK1 (human)
  kinase still bound, per cent of control: 52%
STK36 (human)
  kinase still bound, per cent of control: 100%
TEK (human)
  kinase still bound, per cent of control: 95%
TESK1 (human)
  kinase still bound, per cent of control: 93%
TLK1 (human)
  kinase still bound, per cent of control: 100%

## C=CC(=O)Nc1cccc(Oc2nc(Nc3ccc(N4CCN(C)CC4)cc3OC)ncc2Cl)c1
ACVR2A (human)
  kinase still bound, per cent of control: 100%
ADCK3 (human)
  kinase still bound, per cent of control: 100%
BMPR1A (human)
  kinase still bound, per cent of control: 100%
CAMK2B (human)
  kinase still bound, per cent of control: 100%
CDC42BPA (human)
  kinase still bound, per cent of control: 100%
CDK5 (human)
  kinase still bound, per cent of control: 100%
CHEK2 (human)
  kinase still bound, per cent of control: 8.8%
CHUK (human)
  kinase still bound, per cent of control: 100%
CLK4 (human)
  kinase still bound, per cent of control: 12%
CSNK1E (human)
  kinase still bound, per cent of control: 100%
CaMK1 (human)
  kinase still bound, per cent of control: 100%
DMPK (human)
  kinase still bound, per cent of control: 17%
EPHB2 (human)
  kinase still bound, per cent of control: 100%
ERBB2 (human)
  kinase still bound, per cent of control: 1.8%
FYN (human)
  kinase still bound, per cent of control: 100%
IKBKE (human)
  kinase still bound, per cent of control: 100%
[1]
  kinase still bound, per cent of control: 100%
[2]
  kinase still bound, per cent of control: 26%
MAP2K1 (human)
  kinase still bound, per cent of control: 100%
MAP2K4 (human)
  kinase still bound, per cent of control: 100%
MAP4K3 (human)
  kinase still bound, per cent of control: 29%
MARK1 (human)
  kinase still bound, per cent of control: 11%
MST4 (human)
  kinase still bound, per cent of control: 100%
PAK7 (human)
  kinase still bound, per cent of control: 100%
PDGFRB (human)
  kinase still bound, per cent of control: 11%
PIM3 (human)
  kinase still bound, per cent of control: 100%
PLK1 (human)
  kinase still bound, per cent of control: 16%
PLK3 (human)
  kinase still bound, per cent of control: 100%
PRKCH (human)
  kinase still bound, per cent of control: 100%
PRKD3 (human)
  kinase still bound, per cent of control: 10%
PTK2 (human)
  kinase still bound, per cent of control: 0.1%
RIOK3 (human)
  kinase still bound, per cent of control: 20%
RPS6KA5 KD2 (human)
  kinase still bound, per cent of control: 100%
RPS6KA6 KD2 (human)
  kinase still bound, per cent of control: 27%
SGK110 (human)
  kinase still bound, per cent of control: 100%
SRPK1 (human)
  kinase still bound, per cent of control: 21%
STK36 (human)
  kinase still bound, per cent of control: 100%
TEK (human)
  kinase still bound, per cent of control: 100%
TESK1 (human)
  kinase still bound, per cent of control: 100%
TLK1 (human)
  kinase still bound, per cent of control: 100%

## Cc1ccc(C(=O)Nc2cccc(C(F)(F)F)c2)cc1Nc1cncc(C(N)=O)c1
ACVR2A (human)
  kinase still bound, per cent of control: 100%
ADCK3 (human)
  kinase still bound, per cent of control: 100%
BMPR1A (human)
  kinase still bound, per cent of control: 100%
CAMK2B (human)
  kinase still bound, per cent of control: 100%
CDC42BPA (human)
  kinase still bound, per cent of control: 100%
CDK5 (human)
  kinase still bound, per cent of control: 100%
CHEK2 (human)
  kinase still bound, per cent of control: 100%
CHUK (human)
  kinase still bound, per cent of control: 100%
CLK4 (human)
  kinase still bound, per cent of control: 100%
CSNK1E (human)
  kinase still bound, per cent of control: 100%
CaMK1 (human)
  kinase still bound, per cent of control: 100%
DMPK (human)
  kinase still bound, per cent of control: 100%
EPHB2 (human)
  kinase still bound, per cent of control: 1.6%
ERBB2 (human)
  kinase still bound, per cent of control: 100%
FYN (human)
  kinase still bound, per cent of control: 100%
IKBKE (human)
  kinase still bound, per cent of control: 100%
[1]
  kinase still bound, per cent of control: 100%
[2]
  kinase still bound, per cent of control: 0%
MAP2K1 (human)
  kinase still bound, per cent of control: 100%
MAP2K4 (human)
  kinase still bound, per cent of control: 100%
MAP4K3 (human)
  kinase still bound, per cent of control: 100%
MARK1 (human)
  kinase still bound, per cent of control: 100%
MST4 (human)
  kinase still bound, per cent of control: 100%
PAK7 (human)
  kinase still bound, per cent of control: 100%
PDGFRB (human)
  kinase still bound, per cent of control: 0.05%
PIM3 (human)
  kinase still bound, per cent of control: 100%
PLK1 (human)
  kinase still bound, per cent of control: 100%
PLK3 (human)
  kinase still bound, per cent of control: 100%
PRKCH (human)
  kinase still bound, per cent of control: 100%
PRKD3 (human)
  kinase still bound, per cent of control: 100%
PTK2 (human)
  kinase still bound, per cent of control: 100%
RIOK3 (human)
  kinase still bound, per cent of control: 100%
RPS6KA5 KD2 (human)
  kinase still bound, per cent of control: 100%
RPS6KA6 KD2 (human)
  kinase still bound, per cent of control: 100%
SGK110 (human)
  kinase still bound, per cent of control: 100%
SRPK1 (human)
  kinase still bound, per cent of control: 100%
STK36 (human)
  kinase still bound, per cent of control: 100%
TEK (human)
  kinase still bound, per cent of control: 100%
TESK1 (human)
  kinase still bound, per cent of control: 100%
TLK1 (human)
  kinase still bound, per cent of control: 100%
